For assay [1], the system named is Miapaca-2 KRAS G12C + A59T. Kind of assay: Stable KRAS mutant cell line viability assay (CellTiter-Glo). It is filed as cell-based. As to conditions: Miapaca-2 mutant cells, 3 d. The text has this: (§1) The aim of the study was to determine the potency and efficacy of compounds for cell proliferation using CellTiter-Glo® (CTG) Luminescent Cell Viability Assay (Promega Corp., Madison, WI). We cloned 14 KRAS^G12C variant sequences with secondary mutations (V8A, V9Y, S17E, T58I, A59T, S65W, R68S, D69P, M72I, D92R, H95N, Y96D, Q99W and F156L) into the Miapaca-2. Totally 14 stable Miapaca-2 mutant cell lines were established through lentivirus infection. For the cell viability assay, cells were dosed with compounds in a 9-point dose-response using a 4 fold dilution series at a top dose of 10 μM. KRAS mutant cells were maintained in DMEM+10% FBS+2.5% HI Horse serum+1% PS+1 μg/mL Puromycin and seeded into 96-well plates at 800-1,500 cells per well 24 h before compound addition and then incubated with compound for 3 d before assaying viability (CellTiter-Glo, Promega). Assays were performed in biological duplicates. Nonlinear regression curves were fitted using Xfit. IC50 (absolute IC50) is the dose at which the estimated viability is 50% relative to untreated wells.
A general note: ATP-based viability assays read luminescence as a measure of living cells.

The test system of assay [2] is Miapaca-2 KRAS G12C + R68S. Described as above. It is filed as cell-based. The conditions noted are these: Miapaca-2 mutant cells, 3 d.
Excerpt: as §1

Assay [3] concerns Miapaca-2 KRAS G12C + S65W. The description is as above. The conditions noted are these: Miapaca-2 mutant cells, 3 d. It is filed as cell-based.
Excerpt: as §1

For assay [4], the system named is Miapaca-2 KRAS G12C + S17E. The assay is described as above. Type of assay: cell-based. As to conditions: Miapaca-2 mutant cells, 3 d.
Excerpt: as §1

Assay [5] has as its system Miapaca-2 KRAS G12C + F156L. The assay is described as above. Type of assay: cell-based. As to conditions: Miapaca-2 mutant cells, 3 d.
Excerpt: as §1

Assay [6] deals with Miapaca-2 KRAS G12C + V8A. Described as above. It is filed as cell-based. As to conditions: Miapaca-2 mutant cells, 3 d.
Excerpt: as §1

Assay [7] has as its system Miapaca-2 KRAS G12C + Y96D. Described as above. Type of assay: cell-based. As to conditions: Miapaca-2 mutant cells, 3 d.
Excerpt: as §1

In assay [8] the test system is Miapaca-2 KRAS G12C + H95N. The assay is described as above. Type of assay: cell-based. As to conditions: Miapaca-2 mutant cells, 3 d.
Excerpt: as §1

Assay [9] concerns Miapaca-2 KRAS G12C + T58I. The description is as above. Type of assay: cell-based. As to conditions: Miapaca-2 mutant cells, 3 d.
Excerpt: as §1

Assay [10] concerns Miapaca-2 KRAS G12C + Q99W. Described as above. It is filed as cell-based. The conditions noted are these: Miapaca-2 mutant cells, 3 d.
Excerpt: as §1

For assay [11], the system named is Miapaca-2 KRAS G12C + D92R. The description is as above. It is filed as cell-based. The conditions noted are these: Miapaca-2 mutant cells, 3 d.
Excerpt: as §1

In assay [12] the test system is NCI-H358 cells (KRAS G12C). Kind of assay: Cell viability assay (Cell Counting Kit-8, 3-day). Type of assay: cell-based, human. As to conditions: Homo sapiens, NCI-H358, 72 h, NCI-H358, 72 hrs incubation. The essentials:
(§2)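 72-hr compound treatment, 0.5% DMSO final; NCI-H358 seeded 5,000 cells/well, AGS and SW620 2,000 cells/well. Endpoint: CCK-8, 2-hr development, OD450 minus OD650.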
In general terms: Tetrazolium assays rely on reduction of a dye to a coloured formazan, in cell work by metabolically active cells.

The test system of assay [13] is AGS cells (KRAS G12D). Kind of assay: Cell viability assay (Cell Counting Kit-8, 3-day). Type of assay: cell-based, human. As to conditions: Homo sapiens, 72 h, 72 hrs incubation. The essentials: as §2
Assay [14] has as its system SW620 cells (KRAS G12V). The assay is described as follows: Cell viability assay (Cell Counting Kit-8, 3-day). Type of assay: cell-based, human. As to conditions: Homo sapiens, SW-620; SW620, 72 hrs incubation. In short, it runs like this: as §2
Assay [15] concerns the target KRAS G12C-BRAF complex (Homo sapiens (Human), UniProt P01116+P62937, G12C). The assay is described as follows: KRAS-BRAF with CYPA (500 nM) interaction assay (TR-FRET, Example 136). Type of assay: biochemical. As to conditions: KRAS G12C-BRAF disruption. (In general: In TR-FRET formats the signal depends on donor and acceptor labels being close together.)

Chain of KRAS G12C-BRAF complex (P01116-2 other isoform, or with tags, fused parts or gaps G12C): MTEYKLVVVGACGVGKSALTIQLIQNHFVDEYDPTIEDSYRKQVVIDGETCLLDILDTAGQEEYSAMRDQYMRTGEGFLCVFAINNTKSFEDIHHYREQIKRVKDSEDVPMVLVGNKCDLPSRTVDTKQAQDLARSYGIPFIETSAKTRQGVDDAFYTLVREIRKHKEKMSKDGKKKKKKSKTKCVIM
Chain of KRAS G12C-BRAF complex (P62937 whole entry): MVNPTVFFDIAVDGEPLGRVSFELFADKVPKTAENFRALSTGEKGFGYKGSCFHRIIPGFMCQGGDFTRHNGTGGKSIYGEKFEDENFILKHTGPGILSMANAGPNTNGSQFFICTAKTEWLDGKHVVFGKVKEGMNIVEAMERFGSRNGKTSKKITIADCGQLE

What is called IC50 is the concentration that inhibits the measured activity by half. With `CO[C@@H](C)c1ncc(N2CCN(C)CC2)cc1-c1c2c3cc(cc4c3n1CCC4)-c1csc(n1)C[C@H](NC(=O)[C@H]1[C@H](C)[C@@H]1C)C(=O)N1CCC[C@H](N1)C(=O)OCC(C)(C)C2` (atropisomer, axis not shown; (M)) [Example 24, (1r,2R,3S)-N-[(7S,13S)-(20M)-20-[2-[(1S)-1-methoxyethyl]-5-(4-methylpiperazin-1-yl)-3-pyridyl]-17,17-dimethyl-8,14-dioxo-15-oxa-4-thia-9,21,30,31-tetrazahexacyclo[23.3.1.1^2,5.1^9,13.0^19,27.0^21,26]hentriaconta-1 (28),2,5 (31), 19,25 (29),26-hexaen-7-yl]-2,3-dimethyl-cyclopropanecarboxamide], the IC50 in assay [1] was 6 nM; in assay [2] it was 2 nM; in [3], 1 nM; in [4], 3 nM; in assay [5], 1 nM; in assay [6] it was 1 nM. The IC50 in [7] was determined as 2 nM; in [8], 1 nM; in [9], 2 nM; in assay [10], 5 nM; in assay [11] it was 2 nM; in assay [12] it was 1.3 nM. Also, the figures for the IC50 in assay [13], in [14] and in assay [15] were 4.7 nM, 0.3 nM and 9.7 nM, respectively.
